# In US9682976B2, “Protein kinase C inhibitors and uses thereof” (Rigel Pharmaceuticals, Inc., priority 2012, dated 2017):
# Test system: PKC mediated IL-2 production
# Assay: IL-2 ELISA, human primary T cell, anti CD3+CD28+
# Type: cell-based
# Conditions: Homo sapiens, T-cell, 24 h, human primary T cells stimulated with αCD3 and αCD28, 24 hours
# How it was run: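 Human peripheral blood T cells, pre-expanded with αCD3/αCD28 and IL-2 and then washed free of IL-2, were pre-incubated with compound for 1 h at 37° C. They were then stimulated on plates coated with […] αCD3 and 5 μg/ml αCD28, or with 0.5 ng/ml PMA plus 0.1 uM ionomycin in the counter assay. IL-2 in supernatants was measured by ELISA after 24 h.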
row,EC50 [nM],SMILES
1,< 100,"CC1(C)C[C@H](Nc2nc(Nc3ccc(OCCO)c(-n4nnnc4C4CC4)c3)ncc2F)C[C@@H]2CCCN21 [Compound 129, 2-(2-(5-cyclopropyl-1H-tetrazol-1-yl)-4-((4-(((7R,8aS)-5,5-dimethyloctahydroindolizin-7-yl)amino)-5-fluoropyrimidin-2-yl)amino)phenoxy)ethan-1-ol]"
2,500 to 1000,"CC1(C)C[C@H](Nc2nc(Nc3ccc(OCCO)c(F)c3)ncc2F)C[C@@H]2CCCN21 [Compound 130, 2-(4-((4-(((7R,8aS)-5,5-dimethyloctahydroindolizin-7-yl)amino)-5-fluoropyrimidin-2-yl)amino)-2-fluorophenoxy)ethan-1-ol]"
3,< 100,"CC1(C)C[C@H](Nc2nc(Nc3ccc(OCCO)c(C(F)(F)F)c3)ncc2F)C[C@@H]2CCCN21 [Compound 131, 2-(4-((4-(((7R,8aS)-5,5-dimethyloctahydroindolizin-7-yl)amino)-5-fluoropyrimidin-2-yl)amino)-2-(trifluoromethyl)phenoxy)ethan-1-ol]"
4,< 100,"Cn1nnn(-c2cc(Nc3ncc(F)c(N[C@@H]4C[C@@H]5CCCN5C(C)(C)C4)n3)ccc2OCCO)c1=O [Compound 132, 1-(5-((4-(((7R,8aS)-5,5-dimethyloctahydroindolizin-7-yl)amino)-5-fluoropyrimidin-2-yl)amino)-2-(2-hydroxyethoxy)phenyl)-4-methyl-1,4-dihydro-5H-tetrazol-5-one]"
5,100 to 500,"CC1(C)C[C@H](Nc2nc(Nc3ccc(OCCO)c(Cl)c3)ncc2F)C[C@@H]2CCCN21 [Compound 133, 2-(2-chloro-4-((4-(((7R,8aS)-5,5-dimethyloctahydroindolizin-7-yl)amino)-5-fluoropyrimidin-2-yl)amino)phenoxy)ethan-1-ol]"
6,100 to 500,"Cc1cc(Nc2ncc(F)c(N[C@@H]3C[C@@H]4CCCN4C(C)(C)C3)n2)ccc1OCCO [Compound 134, 2-(4-((4-(((7R,8aS)-5,5-dimethyloctahydroindolizin-7-yl)amino)-5-fluoropyrimidin-2-yl)amino)-2-(methyl)phenoxy)ethan-1-ol]"
7,< 100,"C[C@@H](CO)Oc1ccc(Nc2ncc(F)c(N[C@@H]3C[C@@H]4CCCN4C(C)(C)C3)n2)cc1-n1nnn(C)c1=O [Compound 135, 1-(5-((4-(((7R,8aS)-5,5-dimethyloctahydroindolizin-7-yl)amino)-5-fluoropyrimidin-2-yl)amino)-2-(((S)-1-hydroxypropan-2-yl)oxy)phenyl)-4-methyl-1,4-dihydro-5H-tetrazol-5-one]"
8,< 100,"CC1(C)Oc2ccc(Nc3ncc(F)c(N[C@@H]4C[C@@H]5CCCN5C(C)(C)C4)n3)cc2-n2nnnc21 [Compound 136, N2-(4,4-dimethyl-4H-benzo[b]tetrazolo[1,5-d][1,4]oxazin-8-yl)-N4-((7R,8aS)-5,5-dimethyloctahydroindolizin-7-yl)-5-fluoropyrimidine-2,4-diamine]"
9,< 100,"CC1(C)C[C@H](Nc2nc(Nc3ccc4c(c3)-n3nnnc3C3(CCOCC3)O4)ncc2F)C[C@@H]2CCCN21 [Compound 137, N4-((7R,8aS)-5,5-dimethyloctahydroindolizin-7-yl)-5-fluoro-N2-(2′,3′,5′,6′-tetrahydrospiro[benzo[b]tetrazolo[1,5-d][1,4]oxazine-4,4′-pyran]-8-yl)pyrimidine-2,4-diamine]"
10,< 100,"CC(C)N1CCN(c2ccc(Nc3ncc(F)c(N[C@@H]4C[C@@H]5CCCN5C(C)(C)C4)n3)cc2C#N)CC1 [Compound 138, 5-(4-((7R,8aS)-octahydro-5,5-dimethylindolizin-7-ylamino)-5-fluoropyrimidin-2-ylamino)-2-(4-isopropylpiperazin-1-yl)benzonitrile]"
11,> 10000,"Cn1nnn(-c2cc(Nc3ncc(F)c(N(CC(C)(C)O)[C@@H]4C[C@@H]5CCCN5C(C)(C)C4)n3)c(F)cc2OCC(C)(C)O)c1=O [Compound 139, 1-(5-(4-(((7R,8aS)-5,5-dimethyloctahydroindolizin-7-yl)(2-hydroxy-2-methylpropyl)amino)-5-fluoropyrimidin-2-ylamino)-4-fluoro-2-(2-hydroxy-2-methylpropoxy)phenyl)-4-methyl-1H-tetrazol-5(4H)-one]"
12,< 100,"COc1ccc(Nc2ncc(F)c(N[C@@H]3C[C@@H]4CCCN4C(C)(C)C3)n2)cc1-n1nnnc1C [Compound 140, N4-((7R,8aS)-5,5-dimethyloctahydroindolizin-7-yl)-5-fluoro-N2-(4-methoxy-3-(5-methyl-1H-tetrazol-1-yl)phenyl)pyrimidine-2,4-diamine]"
13,< 100,"Cc1nnnn1-c1cc(Nc2ncc(F)c(N[C@@H]3C[C@@H]4CCCN4C(C)(C)C3)n2)ccc1F [Compound 141, N4-((7R,8aS)-5,5-dimethyloctahydroindolizin-7-yl)-5-fluoro-N2-(4-fluoro-3-(5-methyl-1H-tetrazol-1-yl)phenyl)pyrimidine-2,4-diamine]"
14,< 100,"Cc1nnnn1-c1ccc(F)c(Nc2ncc(F)c(N[C@@H]3C[C@@H]4CCCN4C(C)(C)C3)n2)c1 [Compound 142, N4-((7R,8aS)-5,5-dimethyloctahydroindolizin-7-yl)-5-fluoro-N2-(2-fluoro-5-(5-methyl-1H-tetrazol-1-yl)phenyl)pyrimidine-2,4-diamine]"
15,< 100,"CC1(C)C[C@H](Nc2nc(Nc3ccc(F)c(-n4nnnc4C4CC4)c3)ncc2F)C[C@@H]2CCCN21 [Compound 143, N2-(3-(5-cyclopropyl-1H-tetrazol-1-yl)-4-fluorophenyl)-N4-((7R,8aS)-5,5-dimethyloctahydroindolizin-7-yl)-5-fluoropyrimidine-2,4-diamine]"
16,< 100,"CC1(C)C[C@H](Nc2nc(Nc3cc(-n4nnnc4C4CC4)ccc3F)ncc2F)C[C@@H]2CCCN21 [Compound 144, N2-(5-(5-cyclopropyl-1H-tetrazol-1-yl)-2-fluorophenyl)-N4-((7R,8aS)-5,5-dimethyloctahydroindolizin-7-yl)-5-fluoropyrimidine-2,4-diamine]"
17,< 100,"CC1(C)C[C@H](Nc2nc(Nc3ccc(Cl)c(-n4nnnc4C4CC4)c3)ncc2F)C[C@@H]2CCCN21 [Compound 145, N2-(4-chloro-3-(5-cyclopropyl-1H-tetrazol-1-yl)phenyl)-N4-((7R,8aS)-5,5-dimethyloctahydroindolizin-7-yl)-5-fluoropyrimidine-2,4-diamine]"
18,< 100,"CC1(C)C[C@H](Nc2nc(Nc3cc(-n4cnnn4)c(C4CC4)cc3F)ncc2Cl)C[C@@H]2CCCN21 [Compound 146, 5-chloro-N2-(4-cyclopropyl-2-fluoro-5-(1H-tetrazol-1-yl)phenyl)-N4-((7R,8aS)-5,5-dimethyloctahydroindolizin-7-yl)pyrimidine-2,4-diamine]"
19,< 100,"Cc1ccc(Nc2ncc(Cl)c(N[C@@H]3C[C@@H]4CCCN4C(C)(C)C3)n2)cc1-n1cnnn1 [Compound 147, 5-chloro-N4-((7R,8aS)-5,5-dimethyloctahydroindolizin-7-yl)-N2-(4-methyl-3-(1H-tetrazol-1-yl)phenyl)pyrimidine-2,4-diamine]"
20,< 100,"Cn1nnn(-c2cc(Nc3ncc(Cl)c(N[C@@H]4C[C@@H]5CCCN5C(C)(C)C4)n3)c(F)cc2C2CC2)c1=O [Compound 148, 1-(5-((5-chloro-4-(((7R,8aS)-5,5-dimethyloctahydroindolizin-7-yl)amino)pyrimidin-2-yl)amino)-2-cyclopropyl-4-fluorophenyl)-4-methyl-1,4-dihydro-5H-tetrazol-5-one]"
21,< 100,"Cc1nnnn1-c1cc(Nc2ncc(Cl)c(N[C@@H]3C[C@@H]4CCCN4C(C)(C)C3)n2)ccc1F [Compound 149, 5-chloro-N4-((7R,8aS)-5,5-dimethyloctahydroindolizin-7-yl)-N2-(4-fluoro-3-(5-methyl-1H-tetrazol-1-yl)phenyl)pyrimidine-2,4-diamine]"
22,< 100,"Cc1nnnn1-c1ccc(F)c(Nc2ncc(Cl)c(N[C@@H]3C[C@@H]4CCCN4C(C)(C)C3)n2)c1 [Compound 150, 5-chloro-N4-((7R,8aS)-5,5-dimethyloctahydroindolizin-7-yl)-N2-(2-fluoro-5-(5-methyl-1H-tetrazol-1-yl)phenyl)pyrimidine-2,4-diamine]"
23,< 100,"COc1ccc(Nc2ncc(Cl)c(N[C@@H]3C[C@@H]4CCCN4C(C)(C)C3)n2)cc1-n1nnnc1C [Compound 151, 5-chloro-N4-((7R,8aS)-5,5-dimethyloctahydroindolizin-7-yl)-N2-(4-methoxy-3-(5-methyl-1H-tetrazol-1-yl)phenyl)pyrimidine-2,4-diamine]"
24,< 100,"COc1cc(Nc2ncc(Cl)c(N[C@@H]3C[C@@H]4CCCN4C(C)(C)C3)n2)cc(-n2nnnc2C)c1 [Compound 152, 5-chloro-N4-((7R,8aS)-5,5-dimethyloctahydroindolizin-7-yl)-N2-(3-methoxy-5-(5-methyl-1H-tetrazol-1-yl)phenyl)pyrimidine-2,4-diamine]"
25,100 to 500,"CC1(C)C[C@H](Nc2nc(Nc3cccc(C#N)c3)ncc2Cl)C[C@@H]2CCCN21 [Compound 153, 3-((5-chloro-4-(((7R,8aS)-5,5-dimethyloctahydroindolizin-7-yl)amino)pyrimidin-2-yl)amino)benzonitrile]"
26,< 100,"Cc1ccc(Nc2ncc(Cl)c(N[C@@H]3C[C@@H]4CCCN4C(C)(C)C3)n2)cc1C#N [Compound 154, 5-((5-chloro-4-(((7R,8aS)-5,5-dimethyloctahydroindolizin-7-yl)amino)pyrimidin-2-yl)amino)-2-methylbenzonitrile]"
27,< 100,"CC1(C)C[C@H](Nc2nc(Nc3ccc(C4CC4)c(C#N)c3)ncc2Cl)C[C@@H]2CCCN21 [Compound 155, 5-((5-chloro-4-(((7R,8aS)-5,5-dimethyloctahydroindolizin-7-yl)amino)pyrimidin-2-yl)amino)-2-cyclopropylbenzonitrile]"
28,1000 to 10000,"COc1cc(Nc2ncc(F)c(N[C@@H]3C[C@@H]4CCCN4C(C)(C)C3)n2)cc(OC)c1OC [Compound 156, N4-((7R,8aS)-5,5-dimethyloctahydroindolizin-7-yl)-5-fluoro-N2-(3,4,5-trimethoxyphenyl)pyrimidine-2,4-diamine]"
